Data on 32 compounds can be found in ChEMBL document CHEMBL4808173, “Discovery of Novel Benzimidazole and Indazole Analogues as Tubulin Polymerization Inhibitors with Potent Anticancer Activities” (J Med Chem, 2021).

Holding throughout (format): functional, cell-based
For assay [1], the system named is HeLa. Put plainly: Antiproliferative activity against human HeLa cells assessed as reduction in cell viability measured after 48 hrs by MTT assay.
Assay [2] deals with A549. Put plainly: Antiproliferative activity against human A549 cells assessed as reduction in cell viability measured after 48 hrs by MTT assay. Conditions: A549, 48 h.
The test system of assay [3] is MCF7. Put plainly: Antiproliferative activity against human MCF7 cells assessed as reduction in cell viability measured after 48 hrs by MTT assay. Conditions: MCF7, 48 h. For orientation: Tetrazolium dyes change colour on reduction, which living cells bring about.
Assay [4] relates to B16-F10. The assay is described as follows: Antiproliferative activity against mouse B16-F10 cells assessed as reduction in cell viability measured after 48 hrs by MTT assay. Conditions: B16-F10, 48 h.

Turning to `COc1cc(-c2ccnc3cc(-c4ccc5cnn(C)c5c4)nn23)cc([Se]C)c1OC`, the 50% inhibitory concentration (IC50) (usually the midpoint of a concentration-inhibition curve) was 3.7 µM in assay [1], 1.25 µM in assay [2], 1.18 µM in assay [3] and 3.7 µM in assay [4].
In the case of `COc1cc(-c2n[nH]c3ccc(-c4ccc(C(=N)NO)cc4)cc23)cc(OC)c1OC`, the IC50 in assay [1] was 3.79 µM; in assay [2], 2.98 µM; in assay [3], 3.16 µM; in assay [4], 1.6 µM.
Regarding `COc1cc(-c2n[nH]c3ccc(-c4ccc5c(ccn5C)c4)cc23)cc(OC)c1OC`, the IC50 was found to be 0.141 µM in assay [1], 0.093 µM in assay [2], 0.026 µM in assay [3] and 0.064 µM in assay [4].
For the compound `CCCCn1ccc2c(-c3nc4c(-c5cc(OC)c(OC)c(OC)c5)cccc4[nH]3)cccc21`, the IC50 in assay [1], in assay [2], in assay [3] and in assay [4] was above 10 µM in each case.
`COc1cc(-c2ccc3[nH]nc(-c4cc(OC)c(OC)c(OC)c4)c3c2)cc(OC)c1OC`: the IC50 in assay [1] is 8.62 µM; in assay [2] it was 7.9 µM; in assay [3], above 10 µM; in assay [4], 7.27 µM.
With `COc1cc(-c2ccc3[nH]nc(-c4ccc5c(ccn5C)c4)c3c2)cc(OC)c1OC`, the IC50 in assay [1] was 8.03 µM; in assay [2], above 10 µM; in assay [3], 9.98 µM; in assay [4], 9.26 µM.
For the compound `COc1cc(-c2ccc3[nH]nc(-c4ccc(C#N)cc4)c3c2)cc(OC)c1OC`, the IC50 in assay [1], in assay [2], in assay [3] and in assay [4] was above 10 µM each time.
On to `COc1cc(-c2n[nH]c3ccc(-c4cccc(C(=N)NO)c4)cc23)cc(OC)c1OC`, for which the IC50 was 4.68 µM in assay [1], 6.25 µM in assay [2], above 10 µM in assay [3] and 8.03 µM in assay [4].
On to `COc1cc(-c2ccnc3cc(-c4ccccc4)nn23)cc([Se]C)c1OC`, for which the IC50 in assay [1] is 7.12 µM; in assay [2], above 10 µM; in assay [3], 3.16 µM; in assay [4], 7.12 µM.
Consider `COc1ccc(-c2n[nH]c3ccc(-c4cc(OC)c(OC)c(OC)c4)cc23)cc1`, for which the IC50 in assay [1], in assay [2], in assay [3] and in assay [4] was above 10 µM in each case.
For `COc1cc(-c2ccc3[nH]nc(-c4ccc(C(=N)NO)cc4)c3c2)cc(OC)c1OC`, the IC50 in assay [1], in assay [2], in assay [3] and in assay [4] was above 10 µM in each case.
Regarding `COc1cc(-c2cccc3[nH]c(-c4cccc(C(=N)NO)c4)nc23)cc(OC)c1OC`, the IC50 in assay [1], in assay [2], in assay [3] and in assay [4] was above 10 µM throughout.
On to `COc1cc(-c2cnc3c(-c4ccc5c(ccn5C)c4)nccn23)cc(OC)c1OC`, for which the IC50 in assay [1], in assay [2], in assay [3] and in assay [4] was above 10 µM throughout.
On to `COc1cc(-c2ccc3[nH]nc(-c4ccc(F)cc4)c3c2)cc(OC)c1OC`, for which the IC50 in assay [1], in assay [2], in assay [3] and in assay [4] was above 10 µM each time.
With `COc1cc(-c2cccc3[nH]c(-c4ccc(C(=N)NO)cc4)nc23)cc(OC)c1OC`, the IC50 in assay [1], in assay [2], in assay [3] and in assay [4] was above 10 µM each time.
With `COc1cc(-c2ccc3[nH]nc(-c4cccc(C#N)c4)c3c2)cc(OC)c1OC`, the IC50 in assay [1], in assay [2], in assay [3] and in assay [4] was above 10 µM each time.
As to `COc1cc(-c2ccc3[nH]nc(-c4cccc(C(=N)NO)c4)c3c2)cc(OC)c1OC`, the IC50 in assay [1], in assay [2], in assay [3] and in assay [4] was above 10 µM in each case.
In the case of `COc1ccc(-c2ccc3[nH]nc(-c4cc(OC)c(OC)c(OC)c4)c3c2)cc1`, the IC50 was 0.132 µM in assay [1], 0.191 µM in assay [2], 0.037 µM in assay [3] and 0.161 µM in assay [4].
Taken in the same sequence, the figures for `COc1cc(-c2ccc3[nH]nc(-c4ccccc4)c3c2)cc(OC)c1OC` were above 10 µM, above 10 µM, above 10 µM and above 10 µM.
On to `COc1cc(-c2n[nH]c3ccc(-c4cccc(C#N)c4)cc23)cc(OC)c1OC`, for which the IC50 was 2.04 µM in assay [1], 1.04 µM in assay [2], 2.38 µM in assay [3] and 1.71 µM in assay [4].
The matching figures for `COc1cc(-c2cccc3[nH]c(-c4cccc(C#N)c4)nc23)cc(OC)c1OC`: 6.19 µM, above 10 µM, above 10 µM and 6.19 µM.
Regarding `COc1ccc(-c2cc3nccc(-c4cc(OC)c(OC)c([Se]C)c4)n3n2)cc1[N+](=O)[O-]`, the IC50 in assay [1] is 7.95 µM; in assay [2] it was above 10 µM; in assay [3], 6.19 µM; in assay [4], 7.95 µM.
For the compound `COc1cc(-c2ccnc3cc(-c4cn(CO)c5ccccc45)nn23)cc([Se]C)c1OC`, the IC50 came to 0.856 µM in assay [1], 0.224 µM in assay [2], 0.313 µM in assay [3] and 0.856 µM in assay [4].
Turning to `COc1cc(-c2cccc3[nH]c(-c4cn(C)c5ccccc45)nc23)cc(OC)c1OC`, the half-inhibitory concentration (IC50) in assay [1] worked out at 0.981 µM; in assay [2], 1.01 µM; in assay [3], 0.176 µM; in assay [4], 0.631 µM.
On to `COc1cc(-c2nccn3c(-c4cc(OC)c(OC)c(OC)c4)cnc23)cc(OC)c1OC`, for which the IC50 in assay [1], in assay [2], in assay [3] and in assay [4] was above 10 µM throughout.
Take `COc1cc(-c2n[nH]c3ccc(-c4ccccc4)cc23)cc(OC)c1OC`: the IC50 in assay [1] came out at 0.547 µM; in assay [2], 0.445 µM; in assay [3], 0.245 µM; in assay [4] it was 0.394 µM.
Taken in the same sequence, the figures for `COc1cc(-c2cccc3[nH]c(-c4ccc(C#N)cc4)nc23)cc(OC)c1OC` were above 10 µM, above 10 µM, above 10 µM and above 10 µM.
Take `Cn1ccc2cc(-c3nccn4c(-c5ccc6c(ccn6C)c5)cnc34)ccc21`: the IC50 in assay [1], in assay [2], in assay [3] and in assay [4] was above 10 µM each time.
As for `COc1cc(-c2ccnc3cc(-c4ccc5c(ccn5C)c4)nn23)cc([Se]C)c1OC`, the IC50 came to 0.126 µM in assay [1], 0.372 µM in assay [2], 0.123 µM in assay [3] and 0.126 µM in assay [4].
For `COc1cc(-c2n[nH]c3ccc(-c4ccc(C#N)cc4)cc23)cc(OC)c1OC`, the IC50 is 2.07 µM in assay [1], 1.03 µM in assay [2], 1.05 µM in assay [3] and 1.41 µM in assay [4].
For the compound `COc1cc(-c2ccnc3cc(-c4ccc(C)cc4)nn23)cc([Se]C)c1OC`, the IC50 stood at 0.443 µM in assay [1], 0.231 µM in assay [2], 0.168 µM in assay [3] and 0.443 µM in assay [4].
`COc1cc(-c2ccnc3cc(-c4c[nH]c5ccccc45)nn23)cc([Se]C)c1OC`: the concentration for half-maximal inhibition (IC50) came out at 0.662 µM in assay [1], 0.36 µM in assay [2], 0.349 µM in assay [3] and 0.662 µM in assay [4].
